This note sets out measurements from paper PMC5509001, “Structure Modeling of Human Tyrosyl-DNA Phosphodiesterase 1 and Screening for Its Inhibitors” (Acta Naturae, 2017).

The target of the assay is T1, recombinant human Tdp1 (tyrosyl-DNA phosphodiesterase 1) (Homo sapiens, UniProt Q9NUW8).
T1 construct: recombinant from plasmid pET 16B Tdp1 in Escherichia coli
Briefly: real-time fluorescence biosensor (FAM-oligonucleotide-BHQ1) cleavage. It is filed as biochemical. From the text: real-time fluorescence biosensor (FAM-oligonucleotide-BHQ1) cleavage on recombinant human Tdp1 (tyrosyl-DNA phosphodiesterase 1)

T1 sequence (Q9NUW8 whole entry): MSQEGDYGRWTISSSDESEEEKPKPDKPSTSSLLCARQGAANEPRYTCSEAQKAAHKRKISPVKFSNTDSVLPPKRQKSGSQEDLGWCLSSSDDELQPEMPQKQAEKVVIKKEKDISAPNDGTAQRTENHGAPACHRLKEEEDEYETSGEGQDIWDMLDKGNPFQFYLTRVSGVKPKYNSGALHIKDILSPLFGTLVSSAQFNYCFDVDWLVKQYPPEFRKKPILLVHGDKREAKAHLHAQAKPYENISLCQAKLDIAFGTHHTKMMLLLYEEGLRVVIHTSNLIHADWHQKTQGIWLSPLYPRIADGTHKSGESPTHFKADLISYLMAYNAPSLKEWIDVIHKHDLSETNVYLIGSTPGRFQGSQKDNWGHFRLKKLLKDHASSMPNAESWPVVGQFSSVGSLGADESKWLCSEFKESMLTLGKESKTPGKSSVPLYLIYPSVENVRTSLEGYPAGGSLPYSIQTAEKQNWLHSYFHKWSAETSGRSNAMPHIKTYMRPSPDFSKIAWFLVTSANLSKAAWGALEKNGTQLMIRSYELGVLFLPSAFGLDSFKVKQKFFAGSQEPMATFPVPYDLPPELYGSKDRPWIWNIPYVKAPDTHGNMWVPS

Take `O=S(=O)(O)CCCSc1nc2ccccc2[nH]1` [STK376552]: the IC50 (usually the concentration needed to halve the response being measured) amounted to 686 ± 14 µM.

Consider `O=S(=O)(O)CCSc1nc2ccccc2s1` [STK370528], for which the IC50 is 83 ± 24 µM.
